Assay results reported in US20160206597A1, “New Use” (priority 2013, published 2016).

Legend:
[1] = test system: patients with chronic heart failure with preserved left-ventricular ejection fraction (HF-PEF); experiment: NT-proBNP in 36-week randomized double-blind study of LCZ696 vs valsartan; assay type: in vivo, human; details: for NT-proBNP at 12 weeks / NT-proBNP at 36 weeks / NT-proBNP, Baseline (12-week analysis) / NT-proBNP, Baseline (36-week analysis): geometric mean; for NT-proBNP at 12 weeks / NT-proBNP at 36 weeks: LCZ696 200 mg or valsartan 160 mg twice daily; for NT-proBNP, Baseline (12-week analysis) / NT-proBNP, Baseline (36-week analysis): baseline before treatment; for NT-proBNP, Baseline (12-week analysis): patients evaluated at 12 weeks; for NT-proBNP, Baseline (36-week analysis): patients evaluated at 36 weeks; for Ratio of change in NT-proBNP (LCZ696/valsartan) at 12 weeks: baseline to 12 weeks, 95% CI 0.64-0.92, p = 0.005
From the text: (§1) Men and women aged 40 years or older with a left ventricular ejection fraction of 45% or above, and a documented history of heart failure with associated signs or symptoms (dyspnea on exertion, orthopnea, paroxysmal dyspnea, and peripheral edema) are eligible. Patients are required to have an NT-proBNP >400 pg/mL at screening, be on diuretic therapy, and have a systolic blood pressure less than 140 mm Hg, or 160 mm Hg or less if on three or more blood pressure medications at randomization. Additional inclusion criteria include an estimated glomerular filtration rate (eGFR) of at least 30 ml/min/1.73 m^2 at screening (calculated by the Modification of Diet in Renal Disease formula) and a potassium concentration of no more than 5.2 mmol/L.
Patients are excluded if they had prior left ventricular ejection fraction less than 45% at any time, isolated right heart failure due to pulmonary disease, dyspnea due to non-cardiac causes such as pulmonary disease, anemia, or severe obesity, primary valvular or myocardial diseases, or coronary artery or cerebrovascular disease requiring revascularization within 3 months of screening or likely to require revascularization during the trial.

[2] = test system: patients with chronic heart failure with preserved left-ventricular ejection fraction (HF-PEF); experiment: Safety and tolerability in the 36-week HF-PEF study; details: 36-week study
Protocol: (§2) Eligible patients are enrolled into a 2-week, single-blind placebo run-in period, during which time they continue their background medications. ACE inhibitors and angiotensin receptor blockers are required to be discontinued 24 hours prior to randomization.
(§3) At the investigator's discretion, patients are allowed to stay on each titration dose for an additional week. […] Patients remain on these doses for the remainder of the study, although those not tolerating the maximum dose of study medication could be down-titrated to a lower dose at the Investigator's discretion and then re-challenged to the maximum dose of study medication, or remain on the lower dose.

[3] = test system: patients with chronic heart failure with preserved left-ventricular ejection fraction (HF-PEF); experiment: Echocardiographic parameters in the 36-week HF-PEF study; assay type: in vivo, human; details: for LA Volume Index, Δ from Baseline / LA Volume, Δ from Baseline / LA dimension, Δ from Baseline / LV mass index, Δ from Baseline / Relative wall thickness, Δ from Baseline: at 36 weeks
Protocol: Echocardiographic studies are performed at screening, randomization, at week 12, and week 36 or at end of study or early termination visits. Echocardiograms performed at screening are evaluated by local readers for qualifying information. All other echocardiograms are only performed in patients meeting NT-proBNP entry criterion and are evaluated centrally. For assessment of global ventricular size and function, left ventricular end-diastolic and end-systolic volumes are obtained utilizing the Simpson's rule method and left ventricular ejection fraction is derived in the usual fashion. Maximal left atrial dimension is measured in the parasternal long-axis view, and left atrial volume is assessed with the Simpson's rule method and indexed to body surface area. Measurements are made in triplicate in accordance with the recommendations of the American Society of Echocardiography. Blood pressure and heart rate are measured at all study visits with a calibrated standard sphygmomanometer and appropriate size cuff. The use of concomitant medication is recorded at each study visit.

[4] = test system: patients with chronic heart failure with preserved left-ventricular ejection fraction (HF-PEF); experiment: Renal function parameters (eGFR, serum creatinine, urinary albumin creatinine ratio) in the 36-week HF-PEF study; assay type: in vivo, human; details: for urinary albumin creatinine ratio at baseline: baseline before treatment; for eGFR decrease over 36 weeks: p=0.007; for urinary albumin creatinine ratio at week 36: p=0.02 between groups
Protocol: The term “eGFR” refers to estimated glomerular filtration rate. Within the context of the present invention the eGFR is calculated by the Modification in Diet in Renal Disease (MDRD) formula, which is the one recommended by NICE and The Renal Association (UK), and which is based on the equation described in Levey A S, Bosch J P, Lewis J B, et al; “A more accurate method to estimate glomerular filtration rate from serum creatinine: a new prediction equation. Modification of Diet in Renal Disease Study Group.” Ann Intern Med. 1999 Mar. 16; 130(6):461-70.
as §1

[5] = test system: patients with chronic heart failure with preserved left-ventricular ejection fraction (HF-PEF); experiment: NYHA class, clinical composite assessment and KCCQ in the 36-week HF-PEF study; details: p=0.05
Protocol: as §2, §3
The primary study endpoint is the change from baseline in NT-proBNP assessed at 12 weeks, and is analyzed using the last observation after baseline carried forward. […]
The clinical composite assessment is based on a composite of the NYHA functional classification, patient global assessment and major adverse clinical events. […] Patients are determined to be worse if at the endpoint visit they experienced a major adverse cardiac event during the double blind treatment or reported worsening of their NYHA class or patient global assessment. […]

Row | Compound | NT-proBNP at 12 weeks ([1]; 12 weeks) [pg/mL] | NT-proBNP at 36 weeks [1] [pg/mL] | NT-proBNP, Baseline (12-week analysis) [1] [pg/mL] | NT-proBNP, Baseline (36-week analysis) [1] [pg/mL] | LA Volume Index, Δ from Baseline [3] [ml/m^2] | LA Volume, Δ from Baseline [3] [mL] | LA dimension, Δ from Baseline [3] [cm] | LV mass index, Δ from Baseline [3] [g/m^2] | Relative wall thickness, Δ from Baseline [3] | LA Volume Index, Baseline ([3]; baseline before treatment) [ml/m^2] | LA Volume, Baseline ([3]; baseline before treatment) [mL] | LA dimension, Baseline ([3]; baseline before treatment) [cm] | LV mass index, Baseline ([3]; baseline before treatment) [g/m^2] | urinary albumin creatinine ratio at baseline [4] [mg/mmol] | eGFR decrease over 36 weeks [4] [mL/min per 1.73 m^2] | urinary albumin creatinine ratio at week 36 [4] [mg/mmol] | further results
1 | CCCCC(=O)N(Cc1ccc(-c2ccccc2-c2nnn[nH]2)cc1)[C@H](C(=O)O)C(C)C [Valsartan, (S)—N-valeryl-N-{[2′-(1H-tetrazole-5-yl)-biphenyl-4-yl]-methyl}-valine, reference compound] | 835 | 607 | 862 | 822 | 0.31 | 0.37 | −0.08 | −1.93 | +0.01% | 36.80 | 68.28 | 3.73 | 79.45 | 2.0 | −5.2 | 2.0 | Adverse event atrial fibrillation (number of patients) [2]: 8 patients; Adverse event atrial fibrillation (percent of patients) [2]: 5.3%; Angio-oedema occurrence [2]: no patients; Deaths among serious adverse events [2]: two deaths; Patients with one or more serious adverse events (number) [2]: 30 patients; Patients with one or more serious adverse events (percent) [2]: 20%
2 | trisodium [3-((1S,3R)-1-biphenyl-4-ylmethyl-3-ethoxycarbonyl-1-butylcarbamoyl) propionate-(S)-3′-methyl-2′-(pentanoyl{2″-(tetrazol-5-ylate)biphenyl-4′-ylmethyl}amino)butyrate]hemipentahydrate [LCZ696] | 605 | 496 | 783 | 763 | −2.61 | -4.61 | −0.15 | −2.78 | +0.01% | 35.01 | 65.26 | 3.68 | 76.56 | 1.9 | −1.6 | 2.9 | Reduction in NT-proBNP versus valsartan after adjustment for the change in blood pressure ([1]; 12 weeks, p=0.01): greater reduction; Early reduction in NT-proBNP compared with the valsartan group ([1]; after 4 weeks of treatment, p=0.063): not significant; Ratio of change in NT-proBNP (LCZ696/valsartan) at 12 weeks [1]: 0.77; Ratio of change in NT-proBNP (LCZ696/valsartan) at 12 weeks ([1]; listed as LZC696): 0.77 (95% CI; Ratio of change in NT-proBNP (LCZ696/valsartan) at 36 weeks ([1]; baseline to 36 weeks, 95% CI 0.65-1.09, p = 0.20): 0.85 (95% CI; Left atrial volume, left atrial volume index (LAVI) and left atrial dimension, result in words ([3]; after 36 weeks of treatment, p=0.003, 0.007 and 0.034): reduced significantly; Relative wall thickness, Baseline ([3]; baseline before treatment): 0.37; NYHA class at 36 weeks compared with the valsartan group [5]: improvement in NYHA class; Preservation of renal function compared with valsartan ([4]; after 36 weeks of therapy, eGFR and creatinine data): better preserved renal function; eGFR, LSM of difference (95% CI), LCZ696 vs. Valsartan ([4]; at 36 weeks, P 0.0163): 3.46 (0.64, 6.27) mL/min/1.73 m^2; Serum creatinine, LSM of difference (95% CI), LCZ696 vs. Valsartan ([4]; at 36 weeks, P 0.0193): −4.83 (−8.87, −0.79) μmol/L
